# Laboratory results as given in patent publication US8912184B1, “Therapeutic and diagnostic methods” (Alzheimer's Institute of America, Inc., priority 2010, dated 2014).
# Experiments:
# HCT116 xenograft tumors = assay: HCT116 human colon carcinoma murine xenograft, tumor growth/regression; type: in vivo, nu/nu mice
# Procedure: Exemplary Compound A was tested for its ability to deplete NAD levels and promote tumor regression in an HCT116 (i.e., a Naprt-proficient cancer) murine xenograft model. Three million HCT116 human colon carcinoma cells were injected subcutaneously into nu/nu mice to form tumors. Dosing was started ten days later when median tumor volume was >100 mm^3.
# Exemplary Compound A was administered orally to HCT116 tumor-bearing xenograft mice once (arrow) at the maximum tolerated dose of 75 mg/kg with or without simultaneous delivery of NA by Alzet pump (470 mg/kg/day for three days) (FIG. 8(b)).
# (§1) The effect of weekly administration of Exemplary Compound A on tumor growth was examined in murine HCT116 xenograft models (FIG. 8(c)). HCT116 tumor-bearing xenograft mice were orally dosed with 75 mg/kg Exemplary Compound A weekly for three cycles (arrows), resulting in a maximal tumor response of 10% regression on day 18.
# as §1, with “daily” for “weekly”, “8(d)).” for “8(c)).”, “10” for “75”, “21 days (black bar),” for “three cycles (arrows),”, “32%” for “10%”, “11.” for “18.”
# cell lines = assay: NA rescue phenotype of cell lines treated with Nampt inhibitor (Nicotinic Acid Rescue Cytotoxicity Assays); type: cell-based
# Procedure: Cell lines were treated with a fixed dose of Exemplary Compound A and screened for NA rescue and Naprt1 expression by immunoblotting and qRT-PCR (Table 3). […] The 176 cell lines included 5 normal (non-cancerous) cell lines and 3 primary cell lines (italicized in the table), all of which rescued. Naprt1 was quantified by western blotting and qRT-PCR in 164 and 123 of the 176 cell lines, respectively. […] A statistically significant (p value <0.0001) correlation existed between a NA rescue phenotype and Naprt1 protein or mRNA expression levels.
# Additionally, Nicotinic Acid (NA) rescue of cytotoxicity of Nampt inhibitors was assessed by two distinct methods. In the first method, Nampt1 inhibitor cytotoxicity was evaluated in the presence and absence of exogenous nicotinic acid (NA) at a fixed concentration. […] Twenty four hours after cells were plated, the media was removed and replaced with media containing 10 μM nicotinic acid. Compounds were then immediately added. Cell viability was then assessed at 72 h.
# Cell viability was then assessed at 72 h.
# [1] = Maximum tolerated dose in mice; conditions: nu/nu, mouse, in vivo, oral
# HCT116 cells [2] = assay: 72 Hour HCT116 Cytotoxicity Assay (CellTiter-Glo); type: cell-based; conditions: Homo sapiens, HCT-116, 72 h, HCT116 cells, 72 h, read-out: IC50 cytotoxicity
# Procedure: HCT116 cells were seeded in 96 well plates (Greiner Bio-One, Monroe, N.C.) and allowed to settle overnight. Test compound dissolved in dimethyl sulfoxide (DMSO) was added and drug incubation proceeded for 72 hours. […] After 72 hour, 50 μL of CellTiter-Glo Luminescent Cell Viability Assay reagent (Promega Corporation, Madison, Wis.) was added to cells in 200 μL of cellular media. After a proscribed incubation period, luminescence was measured using a TopCount NXT plate reader (PerkinElmer, Waltham, Mass.).
# HCT116 cells [3] = assay: NAD measured in cellular lysates (NAD depletion) of HCT116 cells; type: cell-based, human; conditions: for IC50: Homo sapiens
# Procedure: NAD in cells was measured by modification of existing protocols (Lee, H. I., et al. Exp. Mol. Med. 40, 246-253 (2008)). MCF-10A cells stably transduced with the PIK3CA(H1047R) oncogene were seeded in 96 well plates at very high density (100% confluence) and allowed to settle overnight. Test compound dissolved in DMSO was added and drug incubation proceeded for 20-24 hours. Cells were washed with PBS and harvested by incubation in 25 μL 0.5 M perchloric acid (HClO4) followed by vigorous shaking at 4° C. for 15 minutes. Acidic cell lysates were neutralized by adding 8 μL of 2 M KOH/0.2 M K2HPO4. The entire lysate volume was transferred to a centrifuge plate and spun at 3000 rpm in a table top centrifuge (4° C.) for 5 minutes to clear the precipitate. Lysate was assayed for both NAD and ATP. For NAD measurement, 10 μL lysate from the centrifuged plate was added to 90 μL of reaction solution in Costar 96 half-well plates (Corning, Corning, N.Y.). […]. Reactions were allowed to proceed for 1 hour at room temperature, after which time fluorescence was read on a Gemini plate reader as described above.
# Using such methods NAD Depeletion was followed in lysates of Naprt-proficient HCT116 cells, exposed to Exemplary Compound A, as shown in FIG. 4 (a). […].
# Kinetics of NAD and ATP depletion in Naprt1-proficient HCT116 cells induced by Exemplary Compound A was studied using the assays described above. HCT116 cells were treated with 8.5 nM Exemplary Compound A and cellular NAD and ATP were measured at various times.
# Potency of Exemplary Compound A as a function of time of exposure was also studied using the assays described above. Cells were treated with a range of Exemplary Compound A concentration for varying times of exposure, and IC50 values for NAD and ATP depletion were determined. […].
# [4] = of 176 cell lines tested, fixed dose
smiles,measurement,setting,value
"O=C(NCc1cccnc1)Nc1ccc(COc2ccccc2-c2ccccc2)cc1 [Exemplary Compound A, 1-{4-[(biphenyl-2-yloxy)methyl]phenyl}-3-(pyridin-3-ylmethyl)urea]","maximal tumor response, regression","HCT116 xenograft tumors; oral 10 mg/kg daily for 21 days, day 11",32%
same,"maximal tumor response, regression","HCT116 xenograft tumors; oral 75 mg/kg weekly for three cycles, day 18",10%
same,"tumor regression induced by single dose, in the presence of NA","HCT116 xenograft tumors; oral once 75 mg/kg, NA by Alzet pump 470 mg/kg/day for three days",completely prevented
same,Rescuable by NA?,"cell lines; A172, glioma",no
same,Rescuable by NA?,"cell lines; COLO-205, colorectal",yes
same,Rescued by NA? (partial indicates <70% rescue),cell lines; DEL cells (lymphoma),Y (partial)
same,Rescuable by NA?,"cell lines; DMS-114, SCLC",yes
same,Rescued by NA? (partial indicates <70% rescue),cell lines; H4 cells (brain; neuroglioma),Y (partial)
same,Rescuable by NA?,"cell lines; HCC827, NSCLC",no
same,Rescuable by NA?,"cell lines; HCT-116, colorectal",yes
same,Rescuable by NA?,"cell lines; HT29, colorectal",yes
same,Rescuable by NA?,"cell lines; HT-1080, fibrosarcoma",no
same,Rescued by NA? (partial indicates <70% rescue),cell lines; Hepa1-6 cells (mouse; hepatoma),Y (partial)
same,Rescued by NA? (partial indicates <70% rescue),cell lines; MOLP-8 cells (myeloma),Y (partial)
same,Rescued by NA? (partial indicates <70% rescue),cell lines; MONO-MAC-6 cells (lymphocytic leukemia),Y (partial)
same,Rescuable by NA?,"cell lines; MiaPaCa2, pancreatic",no
same,Rescuable by NA?,"cell lines; NCI-H82, SCLC",yes
same,Rescuable by NA?,"cell lines; NCI-H460, NSCLC",no
same,Rescuable by NA?,"cell lines; NCI-H522, NSCLC",no
same,Rescued by NA? (partial indicates <70% rescue),cell lines; NCI-H596 cells (lung (NSCLC)),Y (partial)
same,Rescuable by NA?,"cell lines; NCI-H929, multiple myeloma",no
same,Rescuable by NA?,"cell lines; NCI-H1650, NSCLC",no
same,Rescuable by NA?,"cell lines; NCI-N87, gastric",yes
same,Rescued by NA? (partial indicates <70% rescue),cell lines; NOMO-1 cells (myelogenous leukemia),Y (partial)
same,Rescuable by NA?,"cell lines; OCI-Ly19, DLBCL (NHL)",yes
same,Rescuable by NA?,"cell lines; OPM-2, multiple myeloma",no
same,Rescuable by NA?,"cell lines; OVCAR-8, ovarian",yes
same,Rescued by NA? (partial indicates <70% rescue),cell lines; PFSK-1 cells (brain; malignant neuroectodermal tumor),Y (partial)
same,Rescued by NA? (partial indicates <70% rescue),cell lines; RPMI-8226 cells (myeloma),Y (partial)
same,Rescuable by NA?,"cell lines; SF-295, glioma",no
same,Rescued by NA? (partial indicates <70% rescue),cell lines; SKM-1 cells (myelogenous leukemia),Y (partial)
same,Rescued by NA? (partial indicates <70% rescue),cell lines; SR cells (lymphoma),Y (partial)
same,Rescued by NA? (partial indicates <70% rescue),cell lines; SU-DHL-4 cells (lymphoma),Y (partial)
same,Rescuable by NA?,"cell lines; SU-DHL-5, DLBCL (NHL)",no
same,Rescued by NA? (partial indicates <70% rescue),cell lines; SU-DHL-8 cells (lymphoma),Y (partial)
same,Rescued by NA? (partial indicates <70% rescue),cell lines; SUP-M2 cells (lymphoma),Y (partial)
same,Rescuable by NA?,"cell lines; U-87MG, glioma",no
same,Fraction not rescued by NA,"cell lines; bladder, 1 cell line tested",0%
same,Fraction not rescued by NA,"cell lines; brain, 30 cell lines tested",53%
same,Fraction not rescued by NA,"cell lines; breast, 7 cell lines tested",0%
same,Fraction not rescued by NA,"cell lines; colon, 6 cell lines tested",0%
same,Fraction not rescued by NA,"cell lines; fibrosarcoma, 5 cell lines tested",20%
same,Fraction not rescued by NA,"cell lines; gastric, 1 cell line tested",0%
same,Fraction not rescued by NA,"cell lines; kidney, 5 cell lines tested",20%
same,Fraction not rescued by NA,"cell lines; liver, 4 cell lines tested",25%
same,Fraction not rescued by NA,"cell lines; lung, NSCLC, 26 cell lines tested",27%
same,Fraction not rescued by NA,"cell lines; lung, small cell, 7 cell lines tested",14%
same,Fraction not rescued by NA,"cell lines; lymphocytic leukemia, 6 cell lines tested",17%
same,Fraction not rescued by NA,"cell lines; lymphoma, 16 cell lines tested",38%
same,Fraction not rescued by NA,"cell lines; melanoma, 3 cell lines tested",0%
same,Fraction not rescued by NA,"cell lines; myelogenous leukemia, 10 cell lines tested",10%
same,Fraction not rescued by NA,"cell lines; myeloma, 9 cell lines tested",44%
same,Rescued by NA? (partial indicates <70% rescue),"cell lines; no.11 cells (brain; glioma, anaplastic)",Y (partial)
same,number of cell lines completely rescued by NA,cell lines; [4],113
same,number of cell lines partially rescued by NA,cell lines; [4],16
same,number of cell lines that did not rescue with NA,cell lines; [4],47
same,Fraction not rescued by NA,"cell lines; osteosarcoma, 6 cell lines tested",50%
same,Fraction not rescued by NA,"cell lines; ovary, 3 cell lines tested",0%
same,Fraction not rescued by NA,"cell lines; pancreas, 7 cell lines tested",14%
same,cancer cell lines that failed to be rescued or were only partially rescued by NA,cell lines; panel of 147 cancer cell lines,38%
same,Fraction not rescued by NA,"cell lines; prostate, 2 cell lines tested",0%
same,MTD,[1],75 mg/kg
same,IC50,HCT116 cells [2]; absence of 10 μM NA,0.26 nM
same,IC50,HCT116 cells [2]; presence of 10 μM NA,> 10000 nM
same,NAD depletion reached before loss of ATP initiated,"HCT116 cells [3]; HCT116 cells, 8.5 nM",> 90%
same,IC50,"HCT116 cells [3]; HCT-116, 0.5 h, exposure 30 min, read-out: potency (IC50) for NAD depletion",23 nM
same,IC50,"HCT116 cells [3]; HCT-116, 24 h, HCT116 cells, 24 h, absence of 10 μM NA, read-out: IC50 NAD depletion",0.26 nM
same,IC50,"HCT116 cells [3]; HCT-116, 24 h, HCT116 cells, 24 h, presence of 10 μM NA, read-out: IC50 NAD depletion",> 1000 nM
same,IC50,"HCT116 cells [3]; HCT-116, 48 h, after 48 h exposure, read-out: potency (IC50) for NAD depletion",~0.6 nM
